Values joined by “and” are separate entries in the source; they are usually repeats but may differ in a detail not shown here. Equal values may be shown once.
Tests used:
[1] = biological target: T1, glyceraldehyde 3-phosphate dehydrogenase (PfGAPDH, wild-type) (Plasmodium falciparum, UniProt Q8IKK7); assay: Michaelis-Menten kinetics of purified enzyme (Abs340, NADH formation); type: biochemical
T1 construct: gene PF3D7_1462800; recombinant PfGAPDH, N-terminal 6x-His tag, N-term and C-term modifications for improved solubility

[2] = biological target: T2, glyceraldehyde 3-phosphate dehydrogenase (PfGAPDH I209T) (Plasmodium falciparum, UniProt Q8IKK7, I209T); assay: heme titration by absorption spectroscopy (purified protein); type: binding
T2 construct: gene PF3D7_1462800; recombinant PfGAPDH, N-terminal 6x-His tag, N-term and C-term modifications for improved solubility

[3] = biological target: T1, glyceraldehyde 3-phosphate dehydrogenase (PfGAPDH, wild-type); assay: heme titration by absorption spectroscopy (purified protein); enzyme inhibition also measured, EC50 =[…]; type: binding
[4] = biological target: Plasmodium falciparum glyceraldehyde 3-phosphate dehydrogenase I209T variant (recombinant) (Plasmodium falciparum) (UniProt Q8IKK7); assay: SEC; analytical size exclusion chromatography; 1mg of purified protein in 1mL of FPLC buffer (100mM Tris-HCl pH 7.5, 1mM MgCl2, 1mM DTT, 10% w/v glycerol); all proteins prepped the same day and dialyzed in the same buffer the night before at 4°C
[5] = biological target: Plasmodium falciparum glyceraldehyde 3-phosphate dehydrogenase V238A variant (recombinant) (Plasmodium falciparum) (UniProt Q8IKK7); assay: as above
[6] = biological target: Plasmodium falciparum glyceraldehyde 3-phosphate dehydrogenase, wild type (recombinant) (Plasmodium falciparum) (UniProt Q8IKK7); assay: as above

`O=C[C@H](O)COP(=O)(O)O` [D-glyceraldehyde 3-phosphate] was tested, and the “Michaelis-Menten kinetics of purified enzyme (Abs340, NADH formation)” value [1] was “FSM-resistant and wild-type enzymes shared Michaelis-Menten constants for all three substrates NAD+, GAP, and Pi”.
With `NC(=O)c1ccc[n+]([C@@H]2O[C@H](COP(=O)([O-])OP(=O)(O)OC[C@H]3O[C@@H](n4cnc5c(N)ncnc54)[C@H](O)[C@@H]3O)[C@@H](O)[C@H]2O)c1` [NAD+] the “Michaelis-Menten kinetics of purified enzyme (Abs340, NADH formation)” value [1] was “FSM-resistant and wild-type enzymes shared Michaelis-Menten constants for all three substrates NAD+, GAP, and Pi”.
In the case of `C=CC1=C(C)C2=Cc3c(C=C)c(C)c4[n]3[Fe][n]3c(c(C)c(CCC(=O)O)c3=CC3=NC(=C4)C(C)=C3CCC(=O)O)=CC1=N2` [heme], the Kd [2] is reported as 1840 nM and the Kd [3] is reported as 740 nM.
For “Plasmodium falciparum glyceraldehyde 3-phosphate dehydrogenase I209T variant (recombinant) (from UniProt Q8IKK7 4-335) (enzyme)”, the stoichiometry N [4] was 4 and 2.
For “Plasmodium falciparum glyceraldehyde 3-phosphate dehydrogenase V238A variant (recombinant) (from UniProt Q8IKK7 4-335) (enzyme)”, the stoichiometry N [5] was 4 and 2.
With “Plasmodium falciparum glyceraldehyde 3-phosphate dehydrogenase, wild type (recombinant) (from UniProt Q8IKK7 4-335) (enzyme)” the stoichiometry N [6] was 4.

From paper PMC9512246, “GAPDH mediates drug resistance and metabolism in Plasmodium falciparum malaria parasites” (PLoS Pathogens, 2022)
